Source: ChEMBL document CHEMBL4507274 (2021)

Legend:
[1] = target: Serine/threonine-protein kinase PLK3 (Homo sapiens) (UniProt Q9H4B4); conditions: Compound concentration 100.0 nM
[2] = target: Death-associated protein kinase 1 (Homo sapiens) (UniProt P53355); conditions: Compound concentration 100.0 nM
[3] = target: Serine/threonine-protein kinase PknB (Mycobacterium tuberculosis) (UniProt P9WI81); conditions: Compound concentration 100.0 nM
[4] = target: SRSF protein kinase 2 (Homo sapiens) (UniProt P78362); conditions: Compound concentration 100.0 nM
SRSF protein kinase 2 (Homo sapiens), sequence (P78362 whole entry, looked up): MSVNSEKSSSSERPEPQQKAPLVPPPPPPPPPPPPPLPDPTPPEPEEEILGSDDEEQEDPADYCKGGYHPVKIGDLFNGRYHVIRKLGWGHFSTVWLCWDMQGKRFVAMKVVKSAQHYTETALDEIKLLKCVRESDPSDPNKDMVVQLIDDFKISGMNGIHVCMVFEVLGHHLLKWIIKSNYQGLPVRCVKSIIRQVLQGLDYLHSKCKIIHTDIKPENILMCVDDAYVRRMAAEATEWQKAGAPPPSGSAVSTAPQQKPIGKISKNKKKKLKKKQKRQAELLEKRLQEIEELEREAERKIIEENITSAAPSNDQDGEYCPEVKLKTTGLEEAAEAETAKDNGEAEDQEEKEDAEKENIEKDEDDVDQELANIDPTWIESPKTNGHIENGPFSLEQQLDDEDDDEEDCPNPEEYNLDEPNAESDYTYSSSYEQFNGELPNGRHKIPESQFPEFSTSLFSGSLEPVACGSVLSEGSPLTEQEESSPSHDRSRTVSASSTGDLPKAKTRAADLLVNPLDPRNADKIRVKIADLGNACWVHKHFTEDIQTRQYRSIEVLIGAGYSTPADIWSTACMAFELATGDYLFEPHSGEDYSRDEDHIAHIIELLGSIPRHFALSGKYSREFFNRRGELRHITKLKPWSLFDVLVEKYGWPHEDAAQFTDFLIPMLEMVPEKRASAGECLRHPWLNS

[5] = target: Receptor tyrosine-protein kinase erbB-2 (Homo sapiens) (UniProt P04626); conditions: Compound concentration 100.0 nM
[6] = target: Serine/threonine-protein kinase 17A (Homo sapiens) (UniProt Q9UEE5); conditions: Compound concentration 100.0 nM
[7] = target: SNF-related serine/threonine-protein kinase (Homo sapiens) (UniProt Q9NRH2); conditions: Compound concentration 100.0 nM
[8] = target: Tyrosine-protein kinase FRK (Homo sapiens) (UniProt P42685); conditions: Compound concentration 100.0 nM
[9] = target: Mitogen-activated protein kinase kinase kinase 19 (Homo sapiens) (UniProt Q56UN5); conditions: Compound concentration 100.0 nM
[10] = target: Serine/threonine-protein kinase 32C (Homo sapiens) (UniProt Q86UX6); conditions: Compound concentration 100.0 nM
[11] = target: Focal adhesion kinase 1 (Homo sapiens) (UniProt Q05397); conditions: Compound concentration 100.0 nM
[12] = target: Ribosomal protein S6 kinase alpha-4 (Homo sapiens) (UniProt O75676); conditions: Compound concentration 100.0 nM
[13] = target: Calcium-dependent protein kinase 1 (Plasmodium falciparum) (UniProt P62344); conditions: Compound concentration 100.0 nM
[14] = target: RAC-beta serine/threonine-protein kinase (Homo sapiens) (UniProt P31751); conditions: Compound concentration 100.0 nM
[15] = target: Microtubule-associated serine/threonine-protein kinase 1 (Homo sapiens) (UniProt Q9Y2H9); conditions: Compound concentration 100.0 nM
[16] = target: Macrophage colony-stimulating factor 1 receptor (Homo sapiens) (UniProt P07333); conditions: Compound concentration 100.0 nM
[17] = target: Ephrin type-A receptor 5 (Homo sapiens) (UniProt P54756); conditions: Compound concentration 100.0 nM
[18] = target: Serine/threonine-protein kinase BRSK1 (Homo sapiens) (UniProt Q8TDC3); conditions: Compound concentration 100.0 nM
[19] = target: Serine/threonine-protein kinase N2 (Homo sapiens) (UniProt Q16513); conditions: Compound concentration 100.0 nM
[20] = target: Tyrosine-protein kinase JAK3 (Homo sapiens) (UniProt P52333); conditions: Compound concentration 100.0 nM
[21] = target: T1, Tyrosine-protein kinase receptor TYRO3 (Homo sapiens) (UniProt Q06418); conditions: Compound concentration 100.0 nM
T1 sequence (whole entry): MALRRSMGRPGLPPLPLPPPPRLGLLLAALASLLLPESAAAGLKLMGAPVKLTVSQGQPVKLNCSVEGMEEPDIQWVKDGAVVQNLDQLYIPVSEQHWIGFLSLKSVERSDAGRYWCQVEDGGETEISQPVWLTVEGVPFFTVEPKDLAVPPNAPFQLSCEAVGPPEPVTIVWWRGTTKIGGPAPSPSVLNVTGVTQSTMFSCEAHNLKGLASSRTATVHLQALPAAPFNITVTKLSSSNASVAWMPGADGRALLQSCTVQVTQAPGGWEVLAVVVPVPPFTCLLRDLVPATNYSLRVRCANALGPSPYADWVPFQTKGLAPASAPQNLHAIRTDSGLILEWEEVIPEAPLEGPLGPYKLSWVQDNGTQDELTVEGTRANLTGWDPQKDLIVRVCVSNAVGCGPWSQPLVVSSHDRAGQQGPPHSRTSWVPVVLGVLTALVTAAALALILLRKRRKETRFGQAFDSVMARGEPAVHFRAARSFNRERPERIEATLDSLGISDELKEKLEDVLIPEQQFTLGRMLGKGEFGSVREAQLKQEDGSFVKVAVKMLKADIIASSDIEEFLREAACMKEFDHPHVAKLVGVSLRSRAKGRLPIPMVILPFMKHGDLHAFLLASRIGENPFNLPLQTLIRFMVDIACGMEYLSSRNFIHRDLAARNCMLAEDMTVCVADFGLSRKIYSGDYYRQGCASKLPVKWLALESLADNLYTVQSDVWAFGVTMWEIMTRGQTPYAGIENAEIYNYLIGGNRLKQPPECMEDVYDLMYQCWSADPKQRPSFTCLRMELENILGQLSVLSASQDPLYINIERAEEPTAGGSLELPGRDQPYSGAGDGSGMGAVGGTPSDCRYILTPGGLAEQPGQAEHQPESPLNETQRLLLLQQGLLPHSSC

[22] = tested on: Mast/stem cell growth factor receptor Kit (Homo sapiens), P10721 [L576P]; conditions: Compound concentration 100.0 nM
Mast/stem cell growth factor receptor Kit (Homo sapiens), P10721 [L576P], sequence (P10721 whole entry L576P): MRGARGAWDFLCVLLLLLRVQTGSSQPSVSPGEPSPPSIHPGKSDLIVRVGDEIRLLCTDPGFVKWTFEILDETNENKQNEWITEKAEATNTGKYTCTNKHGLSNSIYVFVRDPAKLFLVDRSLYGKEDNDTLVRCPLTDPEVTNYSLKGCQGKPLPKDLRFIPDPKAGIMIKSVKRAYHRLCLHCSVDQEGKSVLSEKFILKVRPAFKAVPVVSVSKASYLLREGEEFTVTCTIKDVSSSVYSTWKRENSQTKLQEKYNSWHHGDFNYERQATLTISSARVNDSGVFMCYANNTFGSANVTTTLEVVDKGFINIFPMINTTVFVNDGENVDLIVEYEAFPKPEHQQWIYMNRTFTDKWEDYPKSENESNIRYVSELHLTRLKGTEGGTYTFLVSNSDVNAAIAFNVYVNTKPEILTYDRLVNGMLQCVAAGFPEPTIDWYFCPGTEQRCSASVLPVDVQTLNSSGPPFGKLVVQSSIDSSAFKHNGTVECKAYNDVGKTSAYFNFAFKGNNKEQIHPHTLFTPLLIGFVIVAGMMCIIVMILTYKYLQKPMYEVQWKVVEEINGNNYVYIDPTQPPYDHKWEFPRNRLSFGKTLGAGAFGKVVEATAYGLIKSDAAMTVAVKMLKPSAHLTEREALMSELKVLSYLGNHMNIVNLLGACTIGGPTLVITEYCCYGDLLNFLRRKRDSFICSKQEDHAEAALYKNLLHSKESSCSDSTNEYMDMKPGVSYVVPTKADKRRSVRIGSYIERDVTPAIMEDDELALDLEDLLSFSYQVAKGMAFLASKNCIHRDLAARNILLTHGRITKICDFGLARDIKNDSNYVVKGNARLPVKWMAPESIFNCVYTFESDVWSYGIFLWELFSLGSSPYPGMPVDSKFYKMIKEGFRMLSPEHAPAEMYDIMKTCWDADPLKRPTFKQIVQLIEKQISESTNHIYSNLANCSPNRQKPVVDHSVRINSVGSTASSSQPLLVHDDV

[23] = target: Ribosomal protein S6 kinase alpha-2 (Homo sapiens) (UniProt Q15349); conditions: Compound concentration 100.0 nM
[24] = target: Cyclin-dependent kinase-like 3 (Homo sapiens) (UniProt Q8IVW4); conditions: Compound concentration 100.0 nM
[25] = target: D(4) dopamine receptor (Homo sapiens) (UniProt P21917); conditions: Compound concentration 10.0 uM
D(4) dopamine receptor (Homo sapiens), sequence (P21917 whole entry): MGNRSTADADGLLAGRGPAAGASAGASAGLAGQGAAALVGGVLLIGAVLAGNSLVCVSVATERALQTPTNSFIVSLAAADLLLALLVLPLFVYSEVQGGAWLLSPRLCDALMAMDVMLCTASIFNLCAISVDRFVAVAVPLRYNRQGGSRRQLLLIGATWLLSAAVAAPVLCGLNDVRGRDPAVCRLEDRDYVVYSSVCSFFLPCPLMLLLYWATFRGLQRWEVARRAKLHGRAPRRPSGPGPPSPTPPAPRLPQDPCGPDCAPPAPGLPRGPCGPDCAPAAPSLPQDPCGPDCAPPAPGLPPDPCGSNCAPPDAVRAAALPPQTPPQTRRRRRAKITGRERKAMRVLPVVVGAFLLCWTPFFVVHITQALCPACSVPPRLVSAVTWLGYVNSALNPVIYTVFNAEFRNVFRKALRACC

[26] = target: Histamine H1 receptor (Homo sapiens) (UniProt P35367); conditions: Compound concentration 10.0 uM
[27] = target: Fibroblast growth factor receptor 2 (Homo sapiens) (UniProt P21802); conditions: Compound concentration 100.0 nM
Fibroblast growth factor receptor 2 (Homo sapiens), sequence (P21802 22-821 limits assumed): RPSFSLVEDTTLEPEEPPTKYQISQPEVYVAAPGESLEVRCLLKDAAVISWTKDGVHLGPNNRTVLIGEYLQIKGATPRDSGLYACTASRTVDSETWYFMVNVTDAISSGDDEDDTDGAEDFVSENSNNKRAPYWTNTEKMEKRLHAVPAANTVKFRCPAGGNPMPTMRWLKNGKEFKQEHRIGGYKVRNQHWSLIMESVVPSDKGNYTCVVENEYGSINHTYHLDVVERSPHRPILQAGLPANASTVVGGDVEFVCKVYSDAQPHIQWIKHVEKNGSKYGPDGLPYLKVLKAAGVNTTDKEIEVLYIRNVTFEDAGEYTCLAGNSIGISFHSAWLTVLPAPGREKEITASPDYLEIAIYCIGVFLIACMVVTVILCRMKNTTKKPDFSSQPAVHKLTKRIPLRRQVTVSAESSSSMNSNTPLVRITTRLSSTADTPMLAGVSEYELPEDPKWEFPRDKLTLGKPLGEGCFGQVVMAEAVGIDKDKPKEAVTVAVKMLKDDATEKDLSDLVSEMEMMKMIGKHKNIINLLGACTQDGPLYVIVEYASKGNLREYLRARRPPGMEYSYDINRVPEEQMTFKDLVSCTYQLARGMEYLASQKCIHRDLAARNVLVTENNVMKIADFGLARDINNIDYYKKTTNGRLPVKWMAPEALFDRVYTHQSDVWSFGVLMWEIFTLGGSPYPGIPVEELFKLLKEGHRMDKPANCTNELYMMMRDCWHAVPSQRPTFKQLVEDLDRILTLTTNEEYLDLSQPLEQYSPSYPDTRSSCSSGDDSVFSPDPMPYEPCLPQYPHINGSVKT

[28] = target: Platelet-derived growth factor receptor alpha (Homo sapiens) (UniProt P16234); conditions: Compound concentration 100.0 nM
Platelet-derived growth factor receptor alpha (Homo sapiens), sequence (P16234 whole entry): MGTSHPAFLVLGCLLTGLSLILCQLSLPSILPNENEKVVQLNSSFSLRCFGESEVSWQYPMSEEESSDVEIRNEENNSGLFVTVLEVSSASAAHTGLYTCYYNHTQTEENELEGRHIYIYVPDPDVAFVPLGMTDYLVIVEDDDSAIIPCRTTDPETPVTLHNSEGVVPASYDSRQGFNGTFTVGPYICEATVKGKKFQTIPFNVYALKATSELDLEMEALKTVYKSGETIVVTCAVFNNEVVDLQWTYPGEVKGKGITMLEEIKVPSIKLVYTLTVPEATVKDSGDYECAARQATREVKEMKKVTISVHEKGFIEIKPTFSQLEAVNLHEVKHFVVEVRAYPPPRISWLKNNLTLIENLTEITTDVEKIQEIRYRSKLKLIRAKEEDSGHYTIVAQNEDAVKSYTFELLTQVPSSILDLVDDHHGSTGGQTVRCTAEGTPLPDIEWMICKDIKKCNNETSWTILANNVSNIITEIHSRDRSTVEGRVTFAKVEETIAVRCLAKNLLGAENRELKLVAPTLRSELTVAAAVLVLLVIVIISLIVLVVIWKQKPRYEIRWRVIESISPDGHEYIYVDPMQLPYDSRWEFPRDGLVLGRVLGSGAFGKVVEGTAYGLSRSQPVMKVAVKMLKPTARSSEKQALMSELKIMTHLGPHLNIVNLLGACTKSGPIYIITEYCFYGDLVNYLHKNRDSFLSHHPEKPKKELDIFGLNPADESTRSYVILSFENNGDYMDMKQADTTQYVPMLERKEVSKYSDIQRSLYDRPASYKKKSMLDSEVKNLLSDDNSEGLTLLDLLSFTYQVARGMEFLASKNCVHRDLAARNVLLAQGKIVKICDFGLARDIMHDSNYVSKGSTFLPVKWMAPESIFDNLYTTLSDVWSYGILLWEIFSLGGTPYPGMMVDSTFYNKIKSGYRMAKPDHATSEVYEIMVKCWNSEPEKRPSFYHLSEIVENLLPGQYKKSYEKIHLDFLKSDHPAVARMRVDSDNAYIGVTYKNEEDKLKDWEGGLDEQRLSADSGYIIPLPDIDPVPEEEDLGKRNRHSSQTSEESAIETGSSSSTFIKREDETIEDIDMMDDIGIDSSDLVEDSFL

[29] = target: Ephrin type-B receptor 1 (Homo sapiens) (UniProt P54762); conditions: Compound concentration 100.0 nM
Ephrin type-B receptor 1 (Homo sapiens), sequence (P54762 whole entry): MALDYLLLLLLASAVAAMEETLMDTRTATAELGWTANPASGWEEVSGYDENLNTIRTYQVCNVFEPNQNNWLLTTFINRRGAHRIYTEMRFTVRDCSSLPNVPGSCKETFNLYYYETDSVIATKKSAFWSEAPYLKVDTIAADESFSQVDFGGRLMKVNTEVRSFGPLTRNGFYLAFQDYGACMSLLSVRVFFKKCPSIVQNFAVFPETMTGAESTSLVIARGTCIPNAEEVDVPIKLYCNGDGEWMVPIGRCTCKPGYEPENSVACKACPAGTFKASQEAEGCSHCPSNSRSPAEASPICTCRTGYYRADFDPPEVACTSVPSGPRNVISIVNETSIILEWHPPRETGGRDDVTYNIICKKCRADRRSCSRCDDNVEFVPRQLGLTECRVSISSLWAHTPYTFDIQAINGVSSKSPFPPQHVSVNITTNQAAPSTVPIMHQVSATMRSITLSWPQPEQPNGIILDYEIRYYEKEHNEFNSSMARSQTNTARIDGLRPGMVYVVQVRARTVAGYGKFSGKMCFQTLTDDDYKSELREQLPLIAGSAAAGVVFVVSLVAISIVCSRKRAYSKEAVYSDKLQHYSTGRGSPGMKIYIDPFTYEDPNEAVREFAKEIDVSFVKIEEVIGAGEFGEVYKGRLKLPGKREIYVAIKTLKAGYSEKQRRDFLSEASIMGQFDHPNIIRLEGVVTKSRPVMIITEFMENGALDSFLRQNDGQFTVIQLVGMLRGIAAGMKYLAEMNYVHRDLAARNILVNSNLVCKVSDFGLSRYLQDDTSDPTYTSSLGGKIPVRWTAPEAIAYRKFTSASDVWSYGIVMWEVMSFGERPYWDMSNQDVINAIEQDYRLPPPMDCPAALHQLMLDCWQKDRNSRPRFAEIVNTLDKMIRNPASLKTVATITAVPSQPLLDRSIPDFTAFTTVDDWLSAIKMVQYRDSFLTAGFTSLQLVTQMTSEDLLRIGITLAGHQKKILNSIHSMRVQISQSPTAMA

[30] = target: Activin receptor type-1B (Homo sapiens) (UniProt P36896); conditions: Compound concentration 100.0 nM
[31] = target: Vascular endothelial growth factor receptor 3 (Homo sapiens) (UniProt P35916); conditions: Compound concentration 100.0 nM
[32] = tested on: Mast/stem cell growth factor receptor Kit (Homo sapiens), P10721 [A829P]; conditions: Compound concentration 100.0 nM
Mast/stem cell growth factor receptor Kit (Homo sapiens), P10721 [A829P], sequence (P10721 whole entry A829P): as the sequence (P10721 whole entry L576P) above, with P576L, A829P counted along it

[33] = target: Mitogen-activated protein kinase kinase kinase 3 (Homo sapiens) (UniProt Q99759); conditions: Compound concentration 100.0 nM

Cc1c[nH]c2nccc(Oc3c(F)cc(Nc4cc(Cl)nc(N)n4)cc3F)c12 [BAY-549]
inactive: residual activity [1] 83% | residual activity [2] 98% | residual activity [3] 98% | residual activity [4] 75% | residual activity [5] 99% | residual activity [6] 100% | residual activity [7] 77% | residual activity [8] 100% | residual activity [9] 74% | residual activity [10] 93% | residual activity [11] 100% | residual activity [12] 100% | residual activity [13] 91% | residual activity [14] 98% | residual activity [15] 100% | residual activity [16] 100% | residual activity [17] 92% | residual activity [18] 96% | residual activity [19] 100% | residual activity [20] 92% | residual activity [21] 100% | residual activity [22] 72% | residual activity [23] 100% | residual activity [24] 100% | inhibition [25] 11.4% | inhibition [26] -0.06% | residual activity [27] 100% | residual activity [28] 84% | residual activity [29] 86% | residual activity [30] 87% | residual activity [31] 98% | residual activity [32] 70% | residual activity [33] 99%

Cn1cc(Cl)c2c(Oc3c(F)cc(Nc4cc(Cl)nc(N)n4)cc3F)ccnc21 [BAY-4900]
inactive: residual activity [1] 98% | residual activity [2] 100% | residual activity [3] 100% | residual activity [4] 78% | residual activity [5] 95% | residual activity [6] 94% | residual activity [7] 86% | residual activity [8] 81% | residual activity [9] 75% | residual activity [10] 100% | residual activity [11] 100% | residual activity [12] 87% | residual activity [13] 88% | residual activity [14] 100% | residual activity [15] 100% | residual activity [16] 89% | residual activity [17] 100% | residual activity [18] 100% | residual activity [19] 75% | residual activity [20] 94% | residual activity [21] 80% | residual activity [22] 100% | residual activity [23] 100% | residual activity [24] 96% | inhibition [25] 11.3% | inhibition [26] 3.19% | residual activity [27] 98% | residual activity [28] 98% | residual activity [29] 96% | residual activity [30] 98% | residual activity [31] 96% | residual activity [32] 63% | residual activity [33] 90%
